# In US6124498A, “Hydroxynaphthoic acids and derivatives” (University Of New Mexico, priority 1998, dated 2000):
# Entries after “also recorded” stand apart in the source; their conditions may differ.
# Legend:
# human LDH-M (LDH-M4) = target: T1, human LDH-M (LDH-M4) (Homo sapiens, UniProt P00338); experiment: Inhibition of human lactate dehydrogenase LDH-M (LDH-M4), NADH reduction of pyruvate; assay type: biochemical; details: for mode of inhibition of LDH-M with respect to cofactor (NADH): vs cofactor NADH; for selectivity for LDH-M compared to LDH-H: LDH-M vs LDH-H; for change in inhibition / dissociation constant of LDH-M relative to 13: group at 7-position, compared to 13
# T1 construct: purchased Sigma
# Experimental: Recombinant pLDH was produced in E. coli, similar to the procedure described by Bzik et al. in "Expression of Plasmodium falciparum Lactate Dehydrogenase in Escherida coli." in Mol. Biochem. Parasitol., 1993, 59, 155-166 and was purified by Cibacron blue affinity chromatography and chromatofocusing as described previously. Human LDH-H4 and LDH-M4 were from Sigma.
# (§1) LDH activity in the direction of NADH reduction of pyruvate to L-lactate was determined spectrophotometrically in pH 7.5 Tris buffer, 100 mM, containing 10 mM pyruvate and […], 25° C., 340 nm, ε=6.2 mM^-1 cm^-1. Michaelis constants were determined by nonlinear regression analysis of initial rate data using the Enzfitter program (Elsevier-Biosoft). Ki values were determined from double reciprocal plots by linear regression analysis.
# pLDH [1] = target: T2, pLDH (Plasmodium falciparum, UniProt Q27743); experiment: biochemical; assay type: biochemical; details: for mode of inhibition of pLDH with respect to cofactor (NADH): vs cofactor NADH; for selectivity for pLDH compared to LDH-H: pLDH vs LDH-H
# T2 construct: made in house; host or cells: E. coli
# Experimental: (§2) Human LDH-H4 and LDH-M4 were from Sigma.
# as §1
# alcohol dehydrogenase = experiment: Inhibition of alcohol dehydrogenase; assay type: biochemical; details: FIG. 14D
# Experimental: (§3) Other studies with other dehydrogenases that contain the classic Rossman fold, in addition to LDH, were carried out to test that inhibition of dehydrogenases by substituted didhydroxynaphthoic acids is not limited to inhibition of LDH. A number of dehydrogenases were examined as shown in FIGS. 14A (2,3-dihydroxy-6-methyl-7-(o-methylbenzyl)-4-(1-methylethyl)-1-naphthoic acid (25e) inhibition D-lactate dehydrogenase), 14B (2,3-dihydroxy-6-methyl-7-(m-methylbenzyl)-4-(1-methylethyl)-1-naphthoic acid (25f) inhibition of malate dehydrogenase), 14C (compound 25b inhibition of glucose 6-phosphate dehydrogenase) and 14D (compound 21e inhibition of alcohol dehydrogenase).
# human LDH-H (LDH-H4) = target: T3, human LDH-H (LDH-H4) (Homo sapiens, UniProt P07195); experiment: Inhibition of human lactate dehydrogenase LDH-H (LDH-H4), NADH reduction of pyruvate; assay type: biochemical; details: group at 7-position, compared to 13
# T3 construct: purchased Sigma
# Experimental: as §2, §1
# [2] = tested on: glucose 6-phosphate dehydrogenase; experiment: Inhibition of glucose 6-phosphate dehydrogenase; assay type: biochemical; details: FIG. 14C
# Experimental: as §3
# pLDH [3] = target: T2, pLDH; experiment: Quenching of intrinsic protein fluorescence of pLDH in presence and absence of ADP; assay type: binding; details: presence vs absence of ADP
# Source text: (§4) To test the Pan-Active Site inhibitor model for the compounds of the present invention, the binding of dihydroxynaphthoic acids to pLDH and human LDH was examined using fluorescence techniques. The effects of ADP on the binding of inhibitors was compared with the effects of ADP on the binding of NADH to determine which part of the cofactor binding site was the target of the inhibitors. Representative results are shown in FIGS. 13A and 13B for the binding of compound 25c to pLDH. […] In FIG. 13B is shown the quenching of pLDH fluorescence by compound 25c in the presence and absence of ADP.
# LDH-M4 = experiment: Quenching of intrinsic protein fluorescence of LDH-M4 in presence and absence of ADP; assay type: binding, human; details: presence vs absence of ADP
# Source text: as §4
# D-lactate dehydrogenase = experiment: Inhibition of D-lactate dehydrogenase; assay type: biochemical; details: FIG. 14A
# Experimental: as §3
# malate dehydrogenase = experiment: Inhibition of malate dehydrogenase; assay type: biochemical; details: FIG. 14B
# Experimental: as §3
# [4] = tested on: IMP dehydrogenase type 11; details: dominant isoenzyme in neoplastic cells; cited from earlier work
# T2 sequence (Q27743 whole entry): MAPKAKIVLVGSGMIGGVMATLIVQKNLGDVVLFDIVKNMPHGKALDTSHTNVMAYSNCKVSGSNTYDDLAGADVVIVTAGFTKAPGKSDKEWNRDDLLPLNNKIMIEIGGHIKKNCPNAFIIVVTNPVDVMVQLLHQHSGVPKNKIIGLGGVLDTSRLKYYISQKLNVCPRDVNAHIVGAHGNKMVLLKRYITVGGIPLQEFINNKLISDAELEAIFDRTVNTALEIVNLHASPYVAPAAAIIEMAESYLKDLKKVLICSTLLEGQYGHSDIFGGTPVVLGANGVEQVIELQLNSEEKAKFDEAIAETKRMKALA
# T3 sequence (P07195 2-334 limits assumed): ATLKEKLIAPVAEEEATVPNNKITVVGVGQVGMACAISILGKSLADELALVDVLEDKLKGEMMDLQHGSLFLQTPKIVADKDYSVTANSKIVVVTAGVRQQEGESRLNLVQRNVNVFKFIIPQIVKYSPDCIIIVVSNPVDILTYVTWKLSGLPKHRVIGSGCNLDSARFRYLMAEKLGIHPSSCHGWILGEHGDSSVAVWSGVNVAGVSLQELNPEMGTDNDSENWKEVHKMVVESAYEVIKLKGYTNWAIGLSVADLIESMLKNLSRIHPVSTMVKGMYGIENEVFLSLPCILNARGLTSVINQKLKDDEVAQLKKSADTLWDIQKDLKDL
compound,measurement,setting,value
"Cc1ccc2c(C(=O)O)c(O)c(O)c(C(C)C)c2c1 [Compound 13, 8-deoxyhemigossylic acid, reference compound]",mode of inhibition of LDH-M with respect to cofactor (NADH),human LDH-M (LDH-M4),competitive with the binding of NADH
same,dissociation constant for inhibition of pLDH,pLDH [1]; in words,low μmolar range
same,mode of inhibition of pLDH with respect to cofactor (NADH),pLDH [1],competitive with the binding of NADH
"Cc1ccc2c(C(=O)O)c(O)c(O)c(C)c2c1 [Compound 21a, 2,3-Dihydroxy-4,6-dimethyl-1-naphthoic acid]",selectivity for LDH-M compared to LDH-H,human LDH-M (LDH-M4),selectivity for pLDH and LDH-M compared to LDH-H
same,selectivity for pLDH compared to LDH-H,pLDH [1],selectivity for pLDH and LDH-M compared to LDH-H
"Cc1cc2c(C)c(O)c(O)c(C(=O)O)c2cc1C [Compound 21b, 2,3-Dihydroxy-4,6,7-trimethyl-1-naphthoic acid]",selectivity for LDH-M compared to LDH-H,human LDH-M (LDH-M4),selectivity for pLDH and LDH-M compared to LDH-H
same,selectivity for pLDH compared to LDH-H,pLDH [1],selectivity for pLDH and LDH-M compared to LDH-H
"Cc1cc2c(C)c(O)c(O)c(C(=O)O)c2cc1Cc1ccccc1 [Compound 21c, 7-Benzyl-2,3-dihydroxy-4,6-dimethyl-1-naphthoic acid]",selectivity for LDH-M compared to LDH-H,human LDH-M (LDH-M4),selectivity for pLDH and LDH-M compared to LDH-H
same,selectivity for pLDH compared to LDH-H,pLDH [1],selectivity for pLDH and LDH-M compared to LDH-H
"CCCc1c(O)c(O)c(C(=O)O)c2cc(C)c(C)cc12 [Compound 21e, 2,3-Dihydroxy-6,7-dimethyl-4-n-propyl-1-naphthoic acid]",selectivity for LDH-M compared to LDH-H,human LDH-M (LDH-M4),190 fold
same,inhibition of alcohol dehydrogenase,alcohol dehydrogenase,inhibition
"Cc1cc2c(C(=O)O)c(O)c(O)c(C(C)C)c2cc1C [Compound 25a, 2,3-Dihydroxy-6,7-dimethyl-4-(1-methylethyl)-1-naphthoic acid]",change in inhibition / dissociation constant of LDH-M relative to 13,human LDH-M (LDH-M4),little change in the dissociation constants
same,change in inhibition / dissociation constant of pLDH relative to 13,"pLDH [1]; group at 7-position, compared to 13",little change in the dissociation constants
"Cc1cc2c(C(C)C)c(O)c(O)c(C(=O)O)c2cc1Cc1ccccc1 [Compound 25b, 7-Benzyl-2,3-dihydroxy-6-methyl-4-(1-methylethyl)-1-naphthoic acid]",change in inhibition / dissociation constant of LDH-M relative to 13,human LDH-M (LDH-M4),markedly stronger inhibition
same,change in inhibition / dissociation constant of LDH-H relative to 13,human LDH-H (LDH-H4),markedly stronger inhibition
same,inhibition of glucose 6-phosphate dehydrogenase,[2],inhibition
"Cc1cc2c(C(C)C)c(O)c(O)c(C(=O)O)c2cc1Cc1ccc(C(F)(F)F)cc1 [Compound 25c, 7-p-Trifluoromethylbenzyl-2,3-dihydroxy-6-methyl-4-(1-methylethyl)-1-naphthoic acid]",Ki,"pLDH [1]; pH 7.5 Tris, 25° C., read-out: Ki for inhibition of pLDH",200 nM
same,selectivity for pLDH over LDH-H,pLDH [1]; pLDH over LDH-H,400 fold
same,selectivity for pLDH over LDH-M,pLDH [1]; pLDH over LDH-M,75 fold
same,mode of inhibition of pLDH with respect to cofactor (NADH),pLDH [1],competitive against both cofactor and substrate
same,selectivity for pLDH compared to either human LDH,pLDH [1]; vs human LDH-M and LDH-H,highly selective in favor of pLDH
same,mode of inhibition of pLDH with respect to substrate,pLDH [1]; vs substrate (pyruvate),competitive against both cofactor and substrate; also recorded: appears competitive
same,competition with the ADP part of the NADH binding site of pLDH,pLDH [3],not competing with the ADP part of the NADH binding site
same,effect of ADP on binding to pLDH (fluorescence quenching),pLDH [3],enhances the binding of inhibitor
same,effect of ADP on binding to LDH-M4 (fluorescence quenching),LDH-M4,The same results were obtained with LDH-M4
"Cc1ccc(Cc2cc3c(C(=O)O)c(O)c(O)c(C(C)C)c3cc2C)cc1 [Compound 25d, 2,3-dihydroxy-6-methyl-7-(p-methylbenzyl)-4-(1-methylethyl)-1-naphthoic acid]",Kd,"human LDH-M (LDH-M4); pH 7.5 Tris, 25° C.",30 nM
same,mode of inhibition of LDH-M with respect to cofactor (NADH),human LDH-M (LDH-M4),competitive against both cofactor and substrate
same,mode of inhibition of LDH-M4 with respect to substrate,"human LDH-M (LDH-M4); vs substrate (pyruvate), FIGS. 12A and 12B",competitive against both cofactor and substrate
"Cc1ccccc1Cc1cc2c(C(=O)O)c(O)c(O)c(C(C)C)c2cc1C [Compound 25e, 2,3-dihydroxy-6-methyl-7-(o-methylbenzyl)-4-(1-methylethyl)-1-naphthoic acid]",inhibition of D-lactate dehydrogenase,D-lactate dehydrogenase,inhibition
"Cc1cccc(Cc2cc3c(C(=O)O)c(O)c(O)c(C(C)C)c3cc2C)c1 [Compound 25f, 2,3-dihydroxy-6-methyl-7-(m-methylbenzyl)-4-(1-methylethyl)-1-naphthoic acid]",inhibition of malate dehydrogenase,malate dehydrogenase,inhibition
"NC(=O)C1=CN([C@@H]2O[C@H](COP(=O)(O)OP(=O)(O)OC[C@H]3O[C@@H](n4cnc5c(N)ncnc54)[C@H](O)[C@@H]3O)[C@@H](O)[C@H]2O)C=CC1 [NADH, reference compound]",effect of ADP on binding to pLDH (fluorescence quenching),pLDH [3],the presence of ADP competes with the binding of NADH
NC(=O)c1csc([C@@H]2O[C@H](COP(=O)(O)OP(=O)(O)OC[C@H]3O[C@@H](n4cnc5c(N)ncnc54)[C@H](O)[C@@H]3O)[C@@H](O)[C@H]2O)n1 [thiazole-4-carboxamide adenine dinucleotide],inhibition of IMP dehydrogenase type 11,[4],potent inhibitor
